The results in this text go back to paper PMC10253812, “Novel 2-alkythio-4-chloro-N-[imino(heteroaryl)methyl]benzenesulfonamide Derivatives: Synthesis, Molecular Structure, Anticancer Activity and Metabolic Stability” (International Journal of Molecular Sciences, 2023).

The test system of series [1] is HCT-116 (colon cancer) cell line. In words: MTT cell viability assay, HCT-116. Type of series: cell-based. The following applies: Homo sapiens, 72 h of incubation. As for the experimental part: (§1) Compounds 8–24 were evaluated in vitro for their cytotoxic effect against three human cancer cell lines, i.e., HeLa (cervical cancer), HCT-116 (colon cancer) and MCF-7 (breast cancer), and the non-tumor cell line HaCaT using the MTT assay after 72 h of incubation. The results of tests are presented in Table 1 as IC50, indicating the concentration required for 50% inhibition of cell viability. Compounds 8–10 and 14–18 are not presented in the Table 1 because of their low potency (IC50 > 100 µM).
(§2) All chemicals, if not stated otherwise, were obtained from Sigma-Aldrich (St. Louis, MO, USA). The MCF-7, HeLa and HaCaT cell lines were purchased from Cell Lines Services (Eppelheim, Germany), and the HCT-116 cell line was purchased from ATCC (ATCC-No: CCL-247). The cells were cultured in Dulbecco’s modified Eagle’s medium (DMEM) supplemented with 10% fetal bovine serum, 2 mM glutamine, 100 units/mL of penicillin and 100 μg/mL of streptomycin. The cultures were maintained in a humidified atmosphere with 5% CO2 at 37 °C, in an incubator (Heraeus, HeraCell).
(§3) Cytotoxicity assay: Cell viability was determined using the MTT (3-(4,5-dimethylthiazol-2-yl)-2,5diphenyltetrazoliumbromide) assay. The cells were seeded in 96-well plates at a density of 5 × 10^3 cells/well and treated for 24, 48 and 72 h with the examined compounds in the concentration range 1–100 μM. Following treatment, MTT (0.5 mg/mL) was added to the medium, and the cells were further incubated for 2 h at 37 °C. the cells were lysed with DMSO, and the absorbance of the formazan solution was measured at 550 nm with a plate reader (Victor, 1420 multilabel counter). The experiment was performed in triplicate. The values are expressed as the mean ± SD of at least three independent experiments.
(In general: Tetrazolium dyes change colour on reduction, which living cells bring about.)

The subject of series [2] is HaCaT (immortalized human keratinocytes). In words: MTT cell viability assay, non-tumor HaCaT. Type of series: cell-based. The note with it: Homo sapiens, HaCaT, 72 h of incubation, non-tumor cell line. As for the experimental part:
as §1
We also performed an assay on the non-tumor cell line HaCaT (immortalized human keratinocytes) to assess if the effect of 11–13 was selective toward HeLa cells or resulted from a more general toxic activity.
as §2, §3

A short description of series [3]: In vitro metabolic stability assay. The following applies: for half-life at 10 μM: pH 7.4, human liver microsomes 0.5 mg/mL, 1 mM NADPH, 10 μM compound, 37 °C, n = 3, read-out: in vitro metabolic half-life t1/2. The format is in vitro ADME, human. How it is done:
Human liver microsomes along with NADPH were used to assess their susceptibility to undergo first-phase oxidation reactions. The progress of biotransformation was followed by liquid chromatography–mass spectrometry. In order to support the in vitro results, we performed in silico calculations using the Human Liver Microsome-based model for CYP-mediated oxidations provided by the Xenosite online tool.
Stock solutions of the studied compounds were prepared at a concentration of 10 mM in DMSO. […] The incubation mixture contained the studied derivative at a 10 μM concentration, 1 mM NADPH (Sigma-Aldrich) and 0.5 mg/mL of human liver microsomes (HLM, Sigma-Aldrich) in potassium phosphate buffer (0.1 M, pH 7.4). The incubation was carried out in a thermostat at 37 °C and started by the addition of the compound of interest. Then, 20 μL samples were taken after 5, 15, 30, 45 and 60 min. The enzymatic reaction was terminated by the addition of an equal volume of ice-cold acetonitrile containing 10 μM sulfamethoxazole as an internal standard. Control incubations were performed without NADPH as a negative control reflecting NADPH-independent processes, such as chemical degradation and precipitation. After collection, the samples were immediately centrifuged (10 min, 10,000 rpm), and the resulting supernatant was directly analyzed or kept at −80 °C until LC-MS analysis. The natural logarithm of a compound over the IS peak area ratio was plotted vs. the incubation time.
The LC-MS analysis was performed on an Agilent 1260 system coupled to SingleQuad 6120 mass spectrometer (Agilent Technologies, Santa Clara, CA, USA). Poroshell EC-C18 (2.1 mm × 150 mm, 2.7 μm, Agilent Technologies, Santa Clara, CA, USA) was used in reversed-phase mode with gradient elution starting with 90% of phase A (0.1% formic acid in water) and 10% of phase B (0.1% dormic acid in acetonitrile). […] The total analysis time was 21 min at 25 °C, the flow rate was 0.5 mL/min, and the injection volume was 20 μL. The mass spectrometer was equipped with an electrospray ion source and operated in positive ionization mode. The mass analyzer was set for each individual compound to detectthe [M+H]^+ protonated molecule. The MSD parameters of the ESI source were as follows: nebulizer pressure 40 psig (N2), drying gas […] (N2), drying gas temperature 300 °C, capillary voltage 3.0 kV, fragmentor voltage 150 V.
A general note: Liver microsomes are a subcellular fraction often used to study metabolism.

A further series relates to HeLa cells. The series is described as follows: Apoptosis detection by Annexin V-PE and 7-AAD staining, flow cytometry. Type of series: cell-based, human. The note with it: 5 and 10 µM, 48 h. How it is done: In order to determine whether the anti-proliferative effects of 11, 12 and 13 were associated with their ability to induce apoptosis in HeLa cells, the induction of phosphatidylserine externalization by compounds 11, 12 and 13 was examined by flow cytometric analysis. The cells were treated with 2.5, 5 and 10 µM concentrations of 11, 12 and 13 for 24 and 48 h and stained with Annexin V-PE and 7-AAD. […] After 24 h of treatment, a significant increase in the early apoptotic population of cells was visible starting from the concentration of 5 µM.
Detection of apoptosis by Annexin V-PE and 7-AAD staining: Apoptosis induction was detected with an Annexin V-PE Apoptosis Detection Kit I (BD Biosciences, Belgium) according to the manufacturer’s instructions. The cells were treated with 11–13 (2.5, 5 and 10 µM) for 24 and 48 h. Following treatment, the cells were collected and stained with Annexin V-phycoerythrin (PE) and 7-amino-actinomycin (7-AAD) in Annexin-binding buffer for 15 min at RT in the dark. The acquisition was performed on a FACSCalibur cytometer (BD), and the data were analyzed with Flowing software (version 2.5).
In general terms: Flow cytometry measures light scatter and fluorescence of single cells or particles in a stream.

Some results are limits rather than exact numbers.

One may read the IC50 as the concentration needed to halve the response being measured. Higher therefore signals weaker potency in that assay. Consider `Cc1cc(S(=O)(=O)NC(=N)n2ccn(C)c2=S)c(SCc2ccc(Cl)cc2)cc1Cl` [Compound 11, 4-Chloro-N-[imino(3-methyl-2-thioxo-2,3-dihydro-1H-imidazol-1-yl)methyl]-5-methyl-2-(4-chlorobenzylthio)benzenesulfonamide], for which the 50% inhibitory concentration (IC50) in series [1] worked out at 11 ± 0.3 µM; in series [2] it was 18 ± 0.5 µM. For the same molecule, the half-life at 10 μM in series [3] stood at 9.1 min. In addition, in the series with HeLa cells, the “cells in the late stage of apoptosis” value is “significant increase in cells in the late stage of apoptosis”.

Take `Cc1cc(S(=O)(=O)NC(=N)n2ccn(C)c2=S)c(SCc2cc3c(cc2Cl)OCO3)cc1Cl` [Compound 12]: the IC50 in series [1] is over 100 µM; in series [2], 20 ± 1 µM. Moreover, the “relative metabolic stability in vitro” value in series [3] (human liver microsomes with NADPH, order 12 > 13 > 11) was “exhibited the best stability in vitro among the studied set of compounds”. Also, in series [3], the half-life at 10 μM amounted to 20.3 min. Besides, in the series with HeLa cells, the “cells in the late stage of apoptosis” value was “significant increase in cells in the late stage of apoptosis”.

For the molecule `Cc1cc(S(=O)(=O)NC(=N)n2ccn(C)c2=S)c(SCc2cccc3ccccc23)cc1Cl` [Compound 13, 4-Chloro-N-[imino(3-methyl-2-thioxo-2,3-dihydro-1H-imidazol-1-yl)methyl]-5-methyl-2-(naphthalen-1-ylmethylthio)benzenesulfonamide], the concentration for half-maximal inhibition (IC50) worked out at 73 ± 2 µM in series [1] and 18 ± 0.5 µM in series [2]. In series [3], the half-life at 10 μM was found to be 13.9 min. For the same molecule, the “cells in the late stage of apoptosis” value in the series with HeLa cells is “significant increase in cells in the late stage of apoptosis”.
